Assay results as given in patent publication US12203070B2, “Gene knockout of NRF2 for treatment of cancer” (Christiana Care Gene Editing Institute , Inc., priority 2019, dated 2025).
Several values for one entry are separate records, joined by “and”; a condition that tells them apart may be missing. Identical values can stand only once. Entries after “also recorded” stand apart in the source; their conditions may differ.

What was measured:
NRF2 gene = assay: TIDE indel analysis of bulk sorted eGFP+ A549 cells transfected with pX458 CRISPR/Cas9 constructs; assay type: cell-based, human; conditions: bulk sorted eGFP+ A549 population, pX458 plasmid
Procedure: A549 cells were transfected at a concentration of 5×10^5 cells/100 μl in 4 mm gap cuvette (BioExpress, Kaysville, UT, USA). NRF2 targeting pX458 constructs were separately electroporated (250 V. LV, 13 ms pulse length, 2 pulses, 1 s interval) into A549 cells using a Bio-Rad Gene Pulser XCell Electroporation System (Bio-Rad Laboratories, Hercules, CA, USA). Cells were then recovered in 6-well plates with complete growth media at 37° C. for 72 hours prior to sorting. […] Clones were expanded and transferred to larger plates as the individual clones reached confluence, with DNA isolation occurring when cells reached confluence in a six-well plate (1×10^6 cells/mL).
CRISPR/Cas9 targeted A549 clones were PCR amplified (forward 5′-[…] (SEQ ID NO: 5), reverse 5′-[…] (SEQ ID NO: 6)) using Amplitaq Gold Fast PCR Master Mix (Applied Biosystems, Foster City, CA). Briefly, template DNA, primers, water and master mix were combined and cycled: 95° C. for 10 minutes, (96° C. for 3 s, 60° C. for 3 s, 68° C. for 5 s)×35 cycles, and 72° C. for 10 s. The 402 bp products were purified (Qiagen, Hilden, Germany) and Sanger sequenced using the forward PCR primer. Clonal allelic analyses of individual A549 cell clones were analyzed by the software program, Tracking of Indels by DEcomposition (TIDE), to determine the individual sub-sequences within the multi-peaked breakdown product after CRISPR/Cas9 activity. […]

[1] = system: NRF2 knockout A549 cells (2-11); assay: MTS cell proliferation assay after drug exposure, NRF2 knockout cells; assay type: cell-based, human; conditions: 2-11 knockout A549 cells, 72 hours; for chemosensitivity (MTS proliferation): increasing dosages
Procedure: (§1) Cell viability was evaluated using the CellTiter 96 Aqueous Non-Radioactive Cell Proliferation Assay (Promega, Madison, WI). A549 cell lines were plated at 2×10^3 cells per well and allowed to culture for 24 hours. The cell media was then aspirated, the cells washed with PBS, then exposed to the MTS reagent for 3 hours. After 3 hours of MTS bio-reduction by proliferating cells, the formazan product's absorbance was measured using a 450 nm filter on an Infinite 2000 PRO microplate reader (Tecan, Mannadorf, Switzerland). Cell viability after drug exposure was evaluated using the CellTiter 96 Aqueous Non-Radioactive Cell Proliferation Assay. A549 cell lines were plated at 2×10^3 cells per well and allowed to culture for 24 hours. The cells were then treated with cisplatin, carboplatin, or a combination of cisplatin and vinorelbine for three days. The cell media was then aspirated, the cells washed with PBS, then exposed to the MTS reagent for 3 hours. After 3 hours of MTS bio-reduction by proliferating cells, the formazan product's absorbance was measured using a 450 nm filter on an Infinite 2000 PRO microplate reader.

[2] = system: NRF2 knockout A549 (2-11) tumors; assay: Xenograft mouse model, NRF2 knockout A549 (2-11) tumors; assay type: in vivo, athymic nude mice; conditions: for tumor growth: 16 days
Procedure: The animal trials presented herein were carried out at Washington Biotech Inc., Simpsonville Maryland, under animal use and care protocol (SOP 505, SOP 520, SOP 522, SOP 1610, SOP1650) approved by the animal care and use committee of Washington Biotechnology Inc. (AAALAC accredited Animal Welfare Assurance number A4192-01). The human xenograft model was established using methodology reported previously. […] et al., Biomed Res. Int. 2015, 1-17 (2015). Female athymic nude mice (Envigo, 5-6 weeks old) were used in this study. Approximately 5×10^6 cells (wild type A549 or homozygous knockout (clonal expansion 2-11)) suspended in PBS with 20% Matrigel were injected subcutaneously into right flank of each mouse. Tumor volume was measured three times a week with a digital caliper once palpable, and calculated using the formula, tumor size=ab^2/2, where 'a' is the larger and 'b' is the smaller of the two dimensions. When tumors grew up to a mean volume of around 100 mm^3, A549 tumor bearing mice or A549-2-11 tumor bearing mice were randomly divided into 7 groups (N=5 for each group) respectively and subject to dose/regimen-finding study. […] Tumor volume and body weight was closely monitored over time. After 16 days, the animals were sacrificed, with tumor removed, weighed and processed for molecular analysis. Mice were euthanized. The data were expressed as mean±SD. Student's t-test and one-way or two-way ANOVA was used to assess the significance of difference. […] A549 xenografts were resected on day 16, snap frozen in liquid nitrogen and stored in -80° C. until usage. All immunofluorescence staining was performed as previously described. Wang et al., Investig. Opthalmology Vis. Sci. 58, 3896 (2017). Briefly, tumors were embedded in Optimum Cutting Temperature (Tissue Tek, Torrance, CA, USA) and 16-μm-thick sections were obtained with a Leica CM3050 cryostat (Leica Microsystems, Buffalo Grove, IL, USA), and mounted on slides. Slides were fixed and incubated with blocking buffer for 1 hour at room temperature. […]

wild type A549 cells = assay: MTS cell proliferation assay after drug exposure, wild type cells; assay type: cell-based, human
Procedure: as §1

With “5′-UCGAUGUGACCGGGAAUAUCAGG (listed as RNA, chemistry not fully specified) [gRNA1]” the “indels (TIDE), NRF2 disruption” value (NRF2 gene) was “significant amount of indels”.

“5′-UGAUUUAGACGGUAUGCAACAGG (listed as RNA, chemistry not fully specified) [gRNA2]” was tested, and the “indels (TIDE), NRF2 disruption” value (NRF2 gene) was “significant amount of indels”.

With `N.N.O=C([O-])C1(C(=O)[O-])CCC1.[Pt+2]` [carboplatin] the “chemosensitivity (MTS proliferation)” value ([1]; listed as Carboplatin) was “reflected what was observed in the experiments using cisplatin” and the tumor growth ([2]; 25 mg/kg carboplatin tail vein on day 0, 3, 6, 9) was “same reduced proliferation and growth trend described above is reproduced”.

With `N.N.[Cl][Pt][Cl]` [cisplatin] the “concentration up to which a slight increase in cell proliferation is seen” value (wild type A549 cells; wild type A549, 72 hours) was “up to 3 μM”, the “final concentration at which proliferation is adversely affected” value (wild type A549 cells; wild type A549, 72 hours) was 5 µM and 10 µM and the “response of cell proliferation to drug (MTS)” value (wild type A549 cells; wild type A549, increasing dosages, 72 hours) was “resistant to high dosages of Cisplatin”. The “concentration at and above which proliferation is lost” value [1] was no less than 1 µM, the “chemosensitivity (MTS proliferation)” value [1] was “increase in chemosensitivity in a dose-dependent fashion” and the tumor growth ([2]; cisplatin 2 mg/kg tail vein on day 0, 3, 6, 9) was “proliferation of the implanted cells is arrested; also recorded: smallest tumors”. The “Ki67 staining of xenograft tumors” value ([2]; cisplatin 2 mg/kg, tumors resected day 16, compared to saline) was “even lower levels of Ki67”.
